# Values of other authors, collected in patent US12161617B2, “Methocarbamol compositions and related methods” (Exela Sterile Medicines LLC, priority 2014, dated 2024).
compound,measurement,setting,value
"COc1ccccc1OCC(O)COC(N)=O (centres unmarked) [methocarbamol, 3-(2-methoxyphenoxy)-1,2-propanediol 1-carbamate]",differences with respect to methocarbamol absorption,patients undergoing maintenance haemodialysis vs normal subjects,no significant differences
same,relative systemic availability in patients,renal dialysis patients relative to normal subjects,113%
